Source: patent US12454675B2, “Method of increasing protein yield in mammalian cells in serum-free culture medium” (AGENCY FOR SCIENCE, TECHNOLOGY AND RESEARCH, priority 2016, dated 2025)

Columns and labels:
[1] = test system: CHO cell culture; details: 3.6 g/l of monosaccharides; cited from earlier work
[2] = test system: HEK293 cells; assay: Disaccharides to support growth of HEK293 cells in PFCDM; assay type: cell-based; details: 10 g/l sugar, seeding 1.0×10^6 cells/ml, 22 days
Excerpt: (§1) In (A) CHO-K1 cells were cultivated in a serum-free protein-free cell culture medium, HyQ PF-CHO, with 3.6 g/l of different sugars (maltose, sucrose, lactose, trehalose or glucose) as carbohydrate source. The viable cell densities (lined markers) and culture viabilities (marker only) of these cultures at the beginning and end of each passage over a period of 74 days were plotted. Cultures with sucrose, lactose or trehalose were terminated on Day 31 due to the decreased culture viabilities and reduced viable cell densities. The experiment was repeated with a seeding cell density of 1.0×10^6 cells/ml to obtain similar results. In (B) CHO-DG44 cells were cultivated with a seeding cell density of 1.0×10^6 cells/ml in a serum-free protein-free cell culture medium, HyQ PF-CHO, with 10 g/l of different sugars (maltose, sucrose, lactose, trehalose or glucose) as carbohydrate source. The viable cell densities (lined markers) and cell viabilities (marker only) of these cultures at the beginning and end of each passage over a period of 22 days were plotted. In (C) HEK293 cells were cultivated with a seeding cell density of 1.0×10^6 cells/ml in a protein-free chemically defined cell culture medium, PFCDM, with 10 g/l of different sugars (maltose, sucrose, lactose, trehalose or glucose) as carbohydrate source. The viable cell densities (lined markers) and cell viabilities (marker only) of these cultures at the beginning and end of each passage over a period of 22 days were plotted. Cultures with sucrose, lactose or trehalose were terminated on Day 14 due to the decreased culture viabilities and reduced viable cell densities.

[3] = test system: CHO-K1 cells; assay: Adaptation of CHO-K1 cells into HyQ PF-CHO media with different disaccharides; assay type: cell-based, Chinese Hamster; details: 3.6 g/l sugar, seeding 0.3×10^6 cells/ml, 74 days
Experimental: Viable cell density and culture viability were determined by Trypan blue dye exclusion method using Vi-Cell XR Cell Viability Analyzer (Beckman Coulter, Brea, CA) according to manufacturer's instructions. For biochemical and other cell culture parameter analyses, 1 ml of culture sample was centrifuged at 8000 g for 10 minutes to obtain clarified supernatant. […] At each passage during the adaptation process, viable cell density and culture viability before passage and after inoculation into fresh media were determined. […] Osmolality of these culture media were determined to be between 308 and 324 mOsm/kg, well within the range for optimal mammalian cell culture. The viable cell densities and culture viabilities of these cultures at the beginning and end of each passage over a period of 74 days are shown in FIG. 1. […] However, culture viabilities and viable cell densities of the maltose culture started to pick up on Day 14. Proliferation of the cells in maltose culture then maintained over the period of the time studied, while those in the other disaccharides were terminated on Day 31 due to the lack of cell growth and depressed culture viabilities.

[4] = test system: CHO-DG44 cells; assay: Disaccharides to support growth of CHO-DG44 cells in HyQ PF-CHO; assay type: cell-based, Chinese Hamster; details: 10 g/l sugar, 22 days
Excerpt: as §1
To determine whether the same approach can be applied on other CHO cell lines, the use of disaccharides to support the growth of CHO-DG44 cells was evaluated. These cells were cultivated with 10 g/l of maltose, sucrose, lactose, trehalose or glucose as energy source in a serum-free protein-free cell culture medium HyQ PF-CHO. The viable cell densities and culture viabilities of these cultures at the beginning and end of each passage over a period of 22 days are shown in FIG. 1B.

Structure (SMILES) | specific consumption rate [1] | proliferation in serum-free culture medium with the sugar as sugar source [2] | proliferation in serum-free protein-free culture medium with the sugar as sugar source [3] | proliferation in serum-free protein-free culture medium with the sugar as sugar source [4]
O=C(CO)[C@@H](O)[C@H](O)[C@H](O)CO [fructose] | 0.21 ng/cell/day | – | – | –
OC[C@H]1O[C@@](CO)(O[C@H]2O[C@H](CO)[C@@H](O)[C@H](O)[C@H]2O)[C@@H](O)[C@@H]1O [sucrose] | – | not | not | not
O=C[C@H](O)[C@@H](O)[C@@H](O)[C@H](O)CO [galactose] | 0.21 ng/cell/day | – | – | –
OC[C@H]1O[C@@H](O[C@H]2[C@H](O)[C@@H](O)C(O)O[C@@H]2CO)[C@H](O)[C@@H](O)[C@H]1O (some centres unmarked) [lactose] | – | not | not | not
OC[C@H]1O[C@H](O[C@H]2O[C@H](CO)[C@@H](O)[C@H](O)[C@H]2O)[C@H](O)[C@@H](O)[C@@H]1O [trehalose] | – | not | not | not
